Source: PubChem BioAssay AID1963838 (Molecular Pharmacology Branch, DTP, NCI, 2024)
pIC50: −log10 of the molar value.

Test system: 855422-203-R-J1-PDC complex spheroid viability
Test: Anticancer human tumor 855422-203-R-J1-PDC patient-derived bladder carcinoma cell line growth inhibition [POLQ]
Conditions: for pIC50: curve of first compound; for viability, T/C: stronger effect = lower value
Procedure, shortened: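 PDC + HUVEC + MSC complex spheroids; POLQ inhibitors ± partner drugs; top conc. at/near clinical Cmax, else 10 microM (SN-38 1 microM), half-log dilutions; 37 degrees C, 5% CO2.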

[1] = second compound 0.0316 µM, first compound 0.0316 µM
[2] = second compound 0.0316 µM, first compound 0.1 µM
[3] = second compound 0.0316 µM, first compound 0.316 µM
[4] = second compound 0.0316 µM, first compound 1 µM
[5] = second compound 0.0316 µM, first compound 3.16 µM
[6] = second compound 0.0316 µM, first compound 10 µM
[7] = second compound 0.1 µM, first compound 0.0316 µM
[8] = second compound 0.1 µM, first compound 0.1 µM
[9] = second compound 0.1 µM, first compound 0.316 µM
[10] = second compound 0.1 µM, first compound 1 µM
[11] = second compound 0.1 µM, first compound 3.16 µM
[12] = second compound 0.1 µM, first compound 10 µM
[13] = second compound 0.316 µM, first compound 0.0316 µM
[14] = second compound 0.316 µM, first compound 0.1 µM
[15] = second compound 0.316 µM, first compound 0.316 µM
[16] = second compound 0.316 µM, first compound 1 µM
[17] = second compound 0.316 µM, first compound 3.16 µM
[18] = second compound 0.316 µM, first compound 10 µM
[19] = second compound 1 µM, first compound 0.0316 µM
[20] = second compound 1 µM, first compound 0.1 µM
[21] = second compound 1 µM, first compound 0.316 µM
[22] = second compound 1 µM, first compound 1 µM
[23] = second compound 1 µM, first compound 3.16 µM
[24] = second compound 1 µM, first compound 10 µM
[25] = second compound 3.16 µM, first compound 0.0316 µM
[26] = second compound 3.16 µM, first compound 0.1 µM
[27] = second compound 3.16 µM, first compound 0.316 µM
[28] = second compound 3.16 µM, first compound 1 µM
[29] = second compound 3.16 µM, first compound 3.16 µM
[30] = second compound 3.16 µM, first compound 10 µM
[31] = second compound 10 µM, first compound 0.0316 µM
[32] = second compound 10 µM, first compound 0.1 µM
[33] = second compound 10 µM, first compound 0.316 µM
[34] = second compound 10 µM, first compound 1 µM
[35] = second compound 10 µM, first compound 3.16 µM
[36] = second compound 10 µM, first compound 10 µM
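Note: spheroids exposed to compounds for seven days before readout.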

C#Cc1c(F)ccc2cc(O)cc(-c3ncc4c(N5CC6CCC(C5)N6)nc(OCC56CCCN5CC(F)C6)nc4c3F)c12 (stereo not drawn) + Cc1cccc(N(C)C(=O)C2C(O)CCN2c2nc(C)cc(C(F)(F)F)c2C#N)c1
pIC50 (second compound 0.0316 µM): < 5.00 | pIC50 (second compound 0.1 µM): < 5.00 | pIC50 (second compound 0.316 µM): < 5.00 | pIC50 (second compound 1 µM): < 5.00 | pIC50 (second compound 3.16 µM): < 5.00 | pIC50 (second compound 10 µM): < 5.00 | viability, T/C [1]: 106% | viability, T/C [2]: 105% | viability, T/C [3]: 108% | viability, T/C [4]: 101% | viability, T/C [5]: 105% | viability, T/C [6]: 103% | viability, T/C [7]: 103% | viability, T/C [8]: 103% | viability, T/C [9]: 102% | viability, T/C [10]: 96.7% | viability, T/C [11]: 103% | viability, T/C [12]: 103% | viability, T/C [13]: 106% | viability, T/C [14]: 103% | viability, T/C [15]: 99.4% | viability, T/C [16]: 97.4% | viability, T/C [17]: 114% | viability, T/C [18]: 110% | viability, T/C [19]: 109% | viability, T/C [20]: 99.7% | viability, T/C [21]: 106% | viability, T/C [22]: 96.8% | viability, T/C [23]: 111% | viability, T/C [24]: 113% | viability, T/C [25]: 101% | viability, T/C [26]: 92.3% | viability, T/C [27]: 97.5% | viability, T/C [28]: 98.3% | viability, T/C [29]: 107% | viability, T/C [30]: 112% | viability, T/C [31]: 102% | viability, T/C [32]: 107% | viability, T/C [33]: 112% | viability, T/C [34]: 94.3% | viability, T/C [35]: 102% | viability, T/C [36]: 100%

CCc1cc2c(N3CCc4c(cc(Cn5ccnc5)cc4-c4cn(C)nc4C(F)(F)F)C3=O)cc(C)nc2c(OC)n1 + Cc1cccc(N(C)C(=O)C2C(O)CCN2c2nc(C)cc(C(F)(F)F)c2C#N)c1
pIC50 (second compound 0.0316 µM): 5.54 | pIC50 (second compound 0.1 µM): 5.21 | pIC50 (second compound 0.316 µM): 5.16 | pIC50 (second compound 1 µM): 5.13 | pIC50 (second compound 3.16 µM): 5.02 | pIC50 (second compound 10 µM): 5.20 | viability, T/C [1]: 102% | viability, T/C [2]: 134% | viability, T/C [3]: 134% | viability, T/C [4]: 72.5% | viability, T/C [5]: 61.1% | viability, T/C [6]: 35.2% | viability, T/C [7]: 101% | viability, T/C [8]: 144% | viability, T/C [9]: 119% | viability, T/C [10]: 91.1% | viability, T/C [11]: 66.8% | viability, T/C [12]: 39.1% | viability, T/C [13]: 126% | viability, T/C [14]: 147% | viability, T/C [15]: 103% | viability, T/C [16]: 111% | viability, T/C [17]: 70.7% | viability, T/C [18]: 39.4% | viability, T/C [19]: 119% | viability, T/C [20]: 125% | viability, T/C [21]: 113% | viability, T/C [22]: 81% | viability, T/C [23]: 71.7% | viability, T/C [24]: 42.4% | viability, T/C [25]: 135% | viability, T/C [26]: 128% | viability, T/C [27]: 143% | viability, T/C [28]: 95.3% | viability, T/C [29]: 71.4% | viability, T/C [30]: 46.1% | viability, T/C [31]: 110% | viability, T/C [32]: 132% | viability, T/C [33]: 145% | viability, T/C [34]: 98.2% | viability, T/C [35]: 73.1% | viability, T/C [36]: 36.1%

CC(=O)O[C@H]1C(=O)[C@@]2(C)[C@H]([C@H](OC(=O)c3ccccc3)[C@]3(O)C[C@H](OC(=O)[C@H](O)[C@@H](NC(=O)c4ccccc4)c4ccccc4)C(C)=C1C3(C)C)[C@]1(OC(C)=O)CO[C@@H]1C[C@@H]2O + Nc1ccc(C#CCN(C(=O)Cc2ncc(C(F)(F)F)cc2C(F)(F)F)c2ccc(F)cc2)nn1
pIC50 (second compound 0.0316 µM): > 8.02 | pIC50 (second compound 0.1 µM): > 8.02 | pIC50 (second compound 0.316 µM): > 8.02 | pIC50 (second compound 1 µM): > 8.02 | pIC50 (second compound 3.16 µM): > 8.02 | pIC50 (second compound 10 µM): > 8.02 | viability, T/C (second compound 0.0316 µM, first compound 0.00949 µM): 9.1% | viability, T/C (second compound 0.0316 µM, first compound 0.03 µM): 8.18% | viability, T/C (second compound 0.0316 µM, first compound 0.0949 µM): 10.3% | viability, T/C (second compound 0.0316 µM, first compound 0.3 µM): 9.92% | viability, T/C (second compound 0.0316 µM, first compound 0.949 µM): 7.22% | viability, T/C (second compound 0.0316 µM, first compound 3 µM): 9.23% | viability, T/C (second compound 0.1 µM, first compound 0.00949 µM): 12.1% | viability, T/C (second compound 0.1 µM, first compound 0.03 µM): 8.86% | viability, T/C (second compound 0.1 µM, first compound 0.0949 µM): 8.29% | viability, T/C (second compound 0.1 µM, first compound 0.3 µM): 9.07% | viability, T/C (second compound 0.1 µM, first compound 0.949 µM): 6.61% | viability, T/C (second compound 0.1 µM, first compound 3 µM): 8.93% | viability, T/C (second compound 0.316 µM, first compound 0.00949 µM): 10.2% | viability, T/C (second compound 0.316 µM, first compound 0.03 µM): 10% | viability, T/C (second compound 0.316 µM, first compound 0.0949 µM): 7.73% | viability, T/C (second compound 0.316 µM, first compound 0.3 µM): 7.49% | viability, T/C (second compound 0.316 µM, first compound 0.949 µM): 7.31% | viability, T/C (second compound 0.316 µM, first compound 3 µM): 7.76% | viability, T/C (second compound 1 µM, first compound 0.00949 µM): 9.77% | viability, T/C (second compound 1 µM, first compound 0.03 µM): 10.3% | viability, T/C (second compound 1 µM, first compound 0.0949 µM): 7.55% | viability, T/C (second compound 1 µM, first compound 0.3 µM): 9.06% | viability, T/C (second compound 1 µM, first compound 0.949 µM): 7.76% | viability, T/C (second compound 1 µM, first compound 3 µM): 9.17% | viability, T/C (second compound 3.16 µM, first compound 0.00949 µM): 14.2% | viability, T/C (second compound 3.16 µM, first compound 0.03 µM): 8.33% | viability, T/C (second compound 3.16 µM, first compound 0.0949 µM): 9.73% | viability, T/C (second compound 3.16 µM, first compound 0.3 µM): 9.4% | viability, T/C (second compound 3.16 µM, first compound 0.949 µM): 12.7% | viability, T/C (second compound 3.16 µM, first compound 3 µM): 10.1% | viability, T/C (second compound 10 µM, first compound 0.00949 µM): 12.2% | viability, T/C (second compound 10 µM, first compound 0.03 µM): 10.5% | viability, T/C (second compound 10 µM, first compound 0.0949 µM): 11.7% | viability, T/C (second compound 10 µM, first compound 0.3 µM): 9.8% | viability, T/C (second compound 10 µM, first compound 0.949 µM): 7.89% | viability, T/C (second compound 10 µM, first compound 3 µM): 9.4%

COc1cc(C2c3cc4c(cc3C(OC3OC5COC(C)OC5C(O)C3O)C3COC(=O)C23)OCO4)cc(OC)c1O (stereo not drawn) + Nc1ccc(C#CCN(C(=O)Cc2ncc(C(F)(F)F)cc2C(F)(F)F)c2ccc(F)cc2)nn1
pIC50 (second compound 0.0316 µM): 6.28 | pIC50 (second compound 0.1 µM): 6.32 | pIC50 (second compound 0.316 µM): 6.35 | pIC50 (second compound 1 µM): 6.36 | pIC50 (second compound 3.16 µM): 6.47 | pIC50 (second compound 10 µM): 6.42 | viability, T/C [1]: 120% | viability, T/C [2]: 127% | viability, T/C [3]: 78.5% | viability, T/C [4]: 15% | viability, T/C [5]: 10% | viability, T/C [6]: 7.23% | viability, T/C [7]: 108% | viability, T/C [8]: 164% | viability, T/C [9]: 71.5% | viability, T/C [10]: 21% | viability, T/C [11]: 8.67% | viability, T/C [12]: 4.47% | viability, T/C [13]: 94.4% | viability, T/C [14]: 137% | viability, T/C [15]: 66.1% | viability, T/C [16]: 21.8% | viability, T/C [17]: 10.4% | viability, T/C [18]: 4.7% | viability, T/C [19]: 92.2% | viability, T/C [20]: 141% | viability, T/C [21]: 64.8% | viability, T/C [22]: 23.5% | viability, T/C [23]: 10.1% | viability, T/C [24]: 4.86% | viability, T/C [25]: 99.3% | viability, T/C [26]: 135% | viability, T/C [27]: 52% | viability, T/C [28]: 20.5% | viability, T/C [29]: 10.7% | viability, T/C [30]: 4.56% | viability, T/C [31]: 105% | viability, T/C [32]: 114% | viability, T/C [33]: 56.5% | viability, T/C [34]: 19.5% | viability, T/C [35]: 11.1% | viability, T/C [36]: 5.88%
